In general, IC50 refers to the concentration at which inhibition is half-maximal.

Consider 22 compounds from patent US20220363709A1, “ECTONU[…] METHODS OF USE THEREOF” (priority 2019, published 2022).

In the assay the target is T1, recombinant CD73 (Homo sapiens, UniProt P21589).
T1 construct: purchased R&D Systems 5795-EN-010
T1 sequence (P21589 27-547 limits assumed): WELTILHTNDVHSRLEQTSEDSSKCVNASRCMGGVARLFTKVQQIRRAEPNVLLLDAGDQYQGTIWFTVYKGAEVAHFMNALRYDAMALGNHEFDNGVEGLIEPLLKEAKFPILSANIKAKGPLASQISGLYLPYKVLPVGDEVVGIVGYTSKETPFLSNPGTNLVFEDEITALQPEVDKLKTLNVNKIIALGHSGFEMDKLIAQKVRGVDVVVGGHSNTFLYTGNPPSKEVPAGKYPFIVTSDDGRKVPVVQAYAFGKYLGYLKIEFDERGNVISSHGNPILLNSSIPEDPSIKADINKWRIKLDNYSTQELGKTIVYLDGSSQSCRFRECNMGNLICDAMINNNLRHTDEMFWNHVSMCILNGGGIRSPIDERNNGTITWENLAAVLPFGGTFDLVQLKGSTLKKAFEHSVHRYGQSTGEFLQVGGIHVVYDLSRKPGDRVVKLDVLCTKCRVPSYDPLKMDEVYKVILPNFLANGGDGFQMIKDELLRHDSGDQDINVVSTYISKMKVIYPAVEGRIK
As to the kind of experiment: Assay 1: Inhibition of the CD73 Enzyme In Vitro. The following applies: soluble recombinant CD73 0.5 nM, AMP 50 μM, 30 minutes at room temperature, Malachite Green, absorbance at 630 nm; read-out: Assay 1 CD73 IC50. Format: biochemical. The protocol: Serial dilutions of test compounds were incubated with recombinant CD73 and AMP in reaction buffer (25 mM Tris HCl pH7.5, 5 mM MgCl2, 50 mM NaCl, 0.25 mM DTT, 0.005% Triton X-100). The final reaction volume was 25 μL and the final concentrations of recombinant CD73 and AMP were 0.5 nM and 50 μM, respectively. […] After 5 minutes at room temperature, absorbance at 630 nm was determined on a microplate spectrophotometer. The concentration of inorganic phosphate was determined using a phosphate standard curve.
ND indicates not determined.
For `Nc1nc(Cl)nc2c1ncn2[C@@H]1O[C@H](COC(Cc2ccc(-c3ccccc3)cc2)(C(=O)O)c2cscn2)[C@@H](O)[C@H]1O` (mixture of isomers) [Example 1, 3-([1,1′-biphenyl]-4-yl)-2-(((2R,3S,4R,5R)-5-(6-amino-2-chloro-9H-purin-9-yl)-3,4-dihydroxytetrahydrofuran-2-yl)methoxy)-2-(thiazol-4-yl)propanoic acid], the IC50 was 99 nM.
Under `N#Cc1ccccc1-c1ccc(CC(OC[C@H]2O[C@@H](n3cnc4c(N)nc(Cl)nc43)[C@@H](F)[C@@H]2O)(C(=O)O)c2cscn2)cc1` (mixture of isomers) [Example 12, 2-(((2R3R,4S,5R)-5-(6-amino-2-chloro-9H-purin-9-yl)-4-fluoro-3-hydroxytetrahydrofuran-2-yl)methoxy)-3-(2′-cyano-[1,1′-biphenyl]-4-yl)-2-(thiazol-4-yl)propanoic acid] stands 433 nM.
Under `Nc1nc(Cl)nc2c1ncn2[C@@H]1O[C@H](COC(Cc2ccc(-c3ccccc3C(=O)O)cc2)(C(=O)O)c2cscn2)[C@@H](O)[C@@H]1F` (mixture of isomers) [Example 13, 4′-(2-(((2R,3R,4S,5R)-5-(6-amino-2-chloro-9H-purin-9-yl)-4-fluoro-3-hydroxytetrahydrofuran-2-yl)methoxy)-2-carboxy-2-(thiazol-4-yl)ethyl)-[1,1′-biphenyl]-2-carboxylic acid] stands 218 nM; under `Nc1nc(Cl)nc2c1ncn2[C@@H]1O[C@H](COC(C(=O)O)c2cscn2)[C@@H](O)[C@@H]1F` (mixture of isomers) [Example 14, 2-(((2R3R,4S,5R)-5-(6-amino-2-chloro-9H-purin-9-yl)-4-fluoro-3-hydroxytetrahydrofuran-2-yl)methoxy)-2-(thiazol-4-yl)acetic acid], 22100 nM.
The figure for `Nc1nc(Cl)nc2c1ncn2[C@@H]1O[C@H](COC(Cc2cccc(C(=O)O)c2)(C(=O)O)c2cscn2)[C@@H](O)[C@@H]1F` (mixture of isomers) [Example 17, 3-(2-(((2R,3R,4S,5R)-5-(6-amino-2-chloro-9H-purin-9-yl)-4-fluoro-3-hydroxytetrahydrofuran-2-yl)methoxy)-2-carboxy-2-(thiazol-4-yl)ethyl)benzoic acid] is 740 nM; for `Nc1nc(Cl)nc2c1ncn2[C@@H]1O[C@H](COC(Cc2ccc(-c3ccccc3CC(=O)O)cc2)(C(=O)O)c2cscn2)[C@@H](O)[C@@H]1F` (mixture of isomers) [Example 18, 2-(((2R3R,4S,5R)-5-(6-amino-2-chloro-9H-purin-9-yl)-4-fluoro-3-hydroxytetrahydrofuran-2-yl)methoxy)-3-(2′-(carboxymethyl)-[1,1′-biphenyl]-4-yl)-2-(thiazol-4-yl)propanoic acid] it is 182 nM; for `CCCCOc1nc(Cl)nc2c1ncn2[C@@H]1O[C@H](COC(Cc2ccccc2)(C(=O)O)c2cscn2)[C@@H](O)[C@@H]1F` (mixture of isomers) [Example 23, 2-(((2R,3R,4S,5R)-5-(6-butoxy-2-chloro-9H-purin-9-yl)-4-fluoro-3-hydroxytetrahydrofuran-2-yl)methoxy)-3-phenyl-2-(thiazol-4-yl)propanoic acid] it is 3420 nM.
Regarding `CCCNc1nc(Cl)nc2c1ncn2[C@@H]1O[C@H](COC(Cc2ccccc2)(C(=O)O)c2cscn2)[C@@H](O)[C@@H]1F` (mixture of isomers) [Example 24, 2-(((2R,3R4S,5R)-5-(2-chloro-6-(propylamino)-9H-purin-9-yl)-4-fluoro-3-hydroxytetrahydrofuran-2-yl)methoxy)-3-phenyl-2-(thiazol-4-yl)propanoic acid], the IC50 was 1240 nM.
Under `CCCNc1nc(Cl)nc2c1ncn2[C@@H]1O[C@H](COC(Cc2ccc(-c3ccccc3C(=O)O)cc2)(C(=O)O)c2cscn2)[C@@H](O)[C@@H]1F` (mixture of isomers) [Example 25, 4′-(2-carboxy-2-(((2R,3R,4S,5R)-5-(2-chloro-6-(propylamino)-9H-purin-9-yl)-4-fluoro-3-hydroxytetrahydrofuran-2-yl)methoxy)-2-(thiazol-4-yl)ethyl)-[1,1′-biphenyl]-2-carboxylic acid] stands 382 nM.
For the compound `Nc1nc(Cl)nc2c1ncn2[C@@H]1O[C@H](COC(Cc2ccccc2)(C(=O)O)c2cscn2)[C@@H](O)[C@H]1O` (mixture of isomers) [Example 26, 2-(((2R,3S,4R,5R)-5-(6-amino-2-chloro-9H-purin-9-yl)-3,4-dihydroxytetrahydrofuran-2-yl)methoxy)-3-phenyl-2-(thiazol-4-yl)propanoic acid], the IC50 is 400 nM.
The figure for `Nc1nc(Cl)nc2c1ncn2[C@@H]1O[C@H](COC(Cc2ccc(-c3ccccc3)cc2)(C(=O)O)c2csc(Cl)n2)[C@@H](O)[C@H]1O` (mixture of isomers) [Example 27, 3-([1,1′-biphenyl]-4-yl)-2-(((2R,3S,4R,5R)-5-(6-amino-2-chloro-9H-purin-9-yl)-3,4-dihydroxytetrahydrofuran-2-yl)methoxy)-2-(2-chlorothiazol-4-yl)propanoic acid] is 106 nM; for `Nc1nc(Cl)nc2c1ncn2[C@@H]1O[C@H](COC(Cc2ccccc2)(C(=O)O)c2cc[nH]n2)[C@@H](O)[C@H]1O` (mixture of isomers) [Example 32, 2-(((2R,3S,4R,5R)-5-(6-amino-2-chloro-9H-purin-9-yl)-3,4-dihydroxytetrahydrofuran-2-yl)methoxy)-3-phenyl-2-(1H-pyrazol-3-yl)propanoic acid] it is 2060 nM; for `Cc1cc(C(Cc2ccccc2)(OC[C@H]2O[C@@H](n3cnc4c(N)nc(Cl)nc43)[C@H](O)[C@@H]2O)C(=O)O)no1` (mixture of isomers) [Example 37, 2-(((2R,3S,4R,5R)-5-(6-amino-2-chloro-9H-purin-9-yl)-3,4-dihydroxytetrahydrofuran-2-yl)methoxy)-2-(5-methylisoxazol-3-yl)-3-phenylpropanoic acid] it is 8730 nM.
Under `CNS(=O)(=O)c1ccccc1-c1ccc(CC(OC[C@H]2O[C@@H](n3cnc4c(N)nc(Cl)nc43)[C@H](O)[C@@H]2O)(C(=O)O)c2cscn2)cc1` (mixture of isomers) [Example 38, 2-(((2R,3S,4R,5R)-5-(6-amino-2-chloro-9H-purin-9-yl)-3,4-dihydroxytetrahydrofuran-2-yl)methoxy)-3-(2′-(N-methylsulfamoyl)-[1,1′-biphenyl]-4-yl)-2-(thiazol-4-yl)propanoic acid] stands 42 nM; under `CCN(CC)C(=O)c1ccccc1-c1ccc(CC(OC[C@H]2O[C@@H](n3cnc4c(N)nc(Cl)nc43)[C@H](O)[C@@H]2O)(C(=O)O)c2cscn2)cc1` (mixture of isomers) [Example 45, 2-(((2R,3S,4R,5R)-5-(6-amino-2-chloro-9H-purin-9-yl)-3,4-dihydroxytetrahydrofuran-2-yl)methoxy)-3-(2′-(diethylcarbamoyl)-[1,1′-biphenyl]-4-yl)-2-(thiazol-4-yl)propanoic acid], 833 nM; under `Nc1nc(Cl)nc2c1ncn2[C@@H]1O[C@H](COC(Cc2ccc(-c3ccccc3C(=O)O)cc2)(C(=O)O)c2ccsc2)[C@@H](O)[C@H]1O` (mixture of isomers) [Example 49, 4′-(2-(((2R,3S,4R,5R)-5-(6-amino-2-chloro-9H-purin-9-yl)-3,4-dihydroxytetrahydrofuran-2-yl)methoxy)-2-carboxy-2-(thiophen-3-yl)ethyl)-[1,1′-biphenyl]-2-carboxylic acid], 2270 nM.
On to `Nc1nc(Cl)nc2c1ncn2[C@@H]1O[C@H](CO[C@](Cc2ccc(-c3ccc(C(=O)O)cc3)cc2)(C(=O)O)c2cscn2)[C@@H](O)[C@H]1O` (single isomer, unassigned) [Example 2], for which the IC50 came to 64 nM.
Under `Nc1nc(Cl)nc2c1ncn2[C@@H]1O[C@H](CO[C@@](Cc2ccc(-c3ccc(C(=O)O)cc3)cc2)(C(=O)O)c2cscn2)[C@@H](O)[C@H]1O` (single isomer, unassigned) [Example 3] stands 1250 nM; under `N#CCc1ccccc1-c1ccc(C[C@@](OC[C@H]2O[C@@H](n3cnc4c(N)nc(Cl)nc43)[C@H](O)[C@@H]2O)(C(=O)O)c2cscn2)cc1` (single isomer, unassigned) [Example 4], 35 nM.
The figure for `N#CCc1ccccc1-c1ccc(C[C@](OC[C@H]2O[C@@H](n3cnc4c(N)nc(Cl)nc43)[C@H](O)[C@@H]2O)(C(=O)O)c2cscn2)cc1` (single isomer, unassigned) [Example 5] is 502 nM.
In the case of `Nc1nc(Cl)nc2c1ncn2[C@@H]1O[C@H](CO[C@](Cc2ccc(-c3ccccc3CC(=O)O)cc2)(C(=O)O)c2cscn2)[C@@H](O)[C@H]1O` (single isomer, unassigned) [Example 6], the IC50 was determined as 39 nM.
Under `Nc1nc(Cl)nc2c1ncn2[C@@H]1O[C@H](CO[C@@](Cc2ccc(-c3ccccc3CC(=O)O)cc2)(C(=O)O)c2cscn2)[C@@H](O)[C@H]1O` (single isomer, unassigned) [Example 7] stands 1030 nM.
